Reference: patent publication US4125500A, “Cyclic phosphites of sugar alcohols and polymers stabilized therewith” (Hoechst Aktiengesellschaft, priority 1976, dated 1978)

Assays:
[1] = stability to hydrolysis (boiling in deionized water, titration of liberated phosphorous acid); format: physicochemical
Experimental: The stability to hydrolysis was tested according to the process disclosed in DT-OS 2,144,181, pages 7/8. 5.0 g each of the respective phosphite were boiled for 20 and 60 minutes in 100 ml of deionized water. The mixture was then allowed to cool, filtered to remove residues, if any, and in the filtrate the liberated phosphorous acid was titrated with 0.1N KOH against bromophenol blue.
In the following table is indicated the degree of hydrolysis determined under the specified conditions as quotient of the actual consumption of KOH and the theoretically possible consumption with a complete hydrolysis.

[2] = static heat stability (furnace stability) in PVC, time until black coloration; conditions: heating cabinet with air circulation, 0.5 part phosphite
Experimental: (§1) The parts in the following description are parts by weight.
(§2) Each time 100 parts of a mass polyvinyl chloride having a K value of 60 were intimately mixed with
0.2 part of 2-phenyl-indole,
3.0 parts of epoxidized soybean oil
0.3 part of stearyl stearate
0.5 part of glycerol monostearate and
(§3) 0.5 part of the respective phosphite of the invention.
In order to measure the static heat stability (furnace stability) a rough sheet was prepared as described above and the sheet was rolled for a further 10 minutes at 180° C. Flat samples having a diameter of about 30 mm were punched out of the rough sheet removed from the mill and having a thickness of about 0.5 mm, the samples were wrapped in aluminum foil and heated to 180° C. in a heating cabinet with air circulation. At intervals of 10 minutes each a sample was taken from the cabinet and the color thereof was compared with that of the color chart.

[3] = dynamic heat stability (rolling stability) in PVC, discoloration of rough sheet; conditions: 180° C, two roll mill, 0.5 part phosphite
Experimental: as §1, §2
0.2 part of 2-phenyl-indole,
3.0 parts of epoxidized soybean oil
0.3 part of stearyl stearate
0.5 part of glycerol monostearate and
as §3
To measure the dynamic heat stability (rolling stability) the mixtures were rolled on a two roll mill at 180° C. and with 20 revolutions per minute. At intervals of 10 minutes samples were taken from the rough sheet and the color of the samples was compared with the colors of a proper color chart. Rolling was continued until the rough sheet had turned black.
In the color chart used the individual notes have the following meaning:
4 = dark yellow-brown color

[4] = 20 minutes boiling in deionized water
[5] = 60 minutes boiling in deionized water
[6] = boiling deionized water, 20 min

degree of hydrolysis after 20 minutes [1, 6]	degree of hydrolysis after 60 minutes ([1]; boiling deionized water, 1 h)	Compound	degree of hydrolysis after 20 minutes [1, 4]	static (furnace) stability, black coloration at 180° C after [2]	degree of hydrolysis after 60 minutes [1, 5]	dynamic (rolling) stability, discoloration of rough sheet after a rolling time of 10' [3]	dynamic (rolling) stability, discoloration of rough sheet after a rolling time of 20' [3]	dynamic (rolling) stability, discoloration of rough sheet after a rolling time of 30' [3]	dynamic (rolling) stability, discoloration of rough sheet after a rolling time of 40' [3]	dynamic (rolling) stability, discoloration of rough sheet after a rolling time of 50' [3]	dynamic (rolling) stability, discoloration of rough sheet after a rolling time of 60' [3]	dynamic (rolling) stability, discoloration of rough sheet after a rolling time of 70' [3]	dynamic (rolling) stability, discoloration of rough sheet after a rolling time of 80' [3]
–	–	Tristearyl-sorbityl diphosphite monophosphate [Example 25]	9 % of theory	–	–	–	–	–	–	–	–	–	–
–	–	trisnonylphenyl phosphite [reference compound]	57 % of theory	40 '	92 % of theory	1	2	2-3	3	5	–	–	–
–	–	c1ccc(OP(Oc2ccccc2)Oc2ccccc2)cc1 [triphenyl phosphite, reference compound]	84 % of theory	50 '	100 % of theory	1	2	2-3	5	–	–	–	–
5 % of theory	10 % of theory	Tri-stearyl-mannityl-triphosphite [Example 2]	–	–	–	1	1-2	2	2-3	3	3	4	4
–	–	distearyl-sorbityl diphosphite [Example 10]	–	60 '	–	1	1-2	2	3	4	5	–	–
7 % of theory	23 % of theory	Tri-behenyl-mannityl triphosphite [Example 5]	–	–	–	1	1-2	2	2	3	3	4	5
–	–	CCCCCCCCCCCCCCCCCCOP1OCC2(CO1)COP(OCCCCCCCCCCCCCCCCCC)OC2 (stereo not drawn) [distearyl-pentaerthrityl-diphosphite, distearyl-pentaerythritol diphosphite, reference compound]	55 % of theory	50 '	68 % of theory	2-3	2-3	3	3	4	5	–	–
7 % of theory	11 % of theory	Di-behenyl-erythrityl diphosphite [Example 8]	–	60 '	–	1	1-2	1-2	2	3	4	5	–
–	–	Tri-stearyl-dulcityl-triphosphite [Example 3]	–	60 '	–	1	1-2	2	3	4	5	–	–
–	–	distearyl-monododecyl-mercapto-sorbityl triphosphite [Example 23]	–	60 '	–	2	3	3	3	3-4	4	5	–

Compound	degree of hydrolysis after 20 minutes [1, 6]	degree of hydrolysis after 60 minutes ([1]; boiling deionized water, 1 h)	degree of hydrolysis after 20 minutes [1, 4]	static (furnace) stability, black coloration at 180° C after [2]	degree of hydrolysis after 60 minutes [1, 5]	dynamic (rolling) stability, discoloration of rough sheet after a rolling time of 10' [3]	dynamic (rolling) stability, discoloration of rough sheet after a rolling time of 20' [3]	dynamic (rolling) stability, discoloration of rough sheet after a rolling time of 30' [3]	dynamic (rolling) stability, discoloration of rough sheet after a rolling time of 40' [3]	dynamic (rolling) stability, discoloration of rough sheet after a rolling time of 50' [3]	dynamic (rolling) stability, discoloration of rough sheet after a rolling time of 60' [3]	dynamic (rolling) stability, discoloration of rough sheet after a rolling time of 70' [3]	dynamic (rolling) stability, discoloration of rough sheet after a rolling time of 80' [3]
Tri-stearyl-sorbityl triphosphite [Example 1]	7 % of theory	17 % of theory	–	–	–	1	1-2	2	2-3	3	3	4	4
Tri-behenyl-sorbityl triphosphite [Example 4]	10 % of theory	–	–	–	–	1	1-2	2	2	3	3	4	5
